Test results from patent US20260258025A1, “INHIBITORS OF TDP-43 AND TAU AGGREGATION” (Aquinnah Pharmaceuticals, inc., priority 2023, published 2026).

Each molecule was assayed on TDP-43 aggregation (assay: TDP-43 aggregation assay in SY5Y TDP-43WT cells (high content imaging)). Details: Homo sapiens, tetracycline induction 24 hrs, 1 hour compound pre-treatment, sodium arsenite 23 hrs, 8-point dose curve, percentage of cells with TDP-43 aggregates, read-out: IC50, Inhibition of TDP-43 Aggregation.
Type: cell-based
Method: Exemplary compounds disclosed herein were evaluated for efficacy in inhibiting TDP-43 inclusions cellular imaging-based assays.
The cellular model was in human neuroblastoma SH SYSY cells (ATCC, cat #: CRL-2266). The parent cell line was first engineered to stably express a tetracycline repressor protein (designated as TREx-SY5Y cells, customer cell line development by ThermoFisher). Wild-type human TDP-43 with a C-terminus eGFP tag was synthesized and cloned into pcDNA5/TO expression vector (ThermoFisher). The plasmid was transfected into TREx-SY5Y cells using Lipofectamine 2000 and hygromycin resistant colonies were selected. Expression of TDP-43WT::eGFP was examined under fluorescent microscopy and Western blot upon tetracycline induction. The clone that was used for TDP-43 aggregation assay is referred to as SY5Y TDP-43WT cells hereafter.
Compound inhibition of TDP-43 aggregation was tested in an 8-point dose curve in 96-well format. Briefly, TDP-43WT::eGFP expression was induced with […] for 24 hrs (SY5Y TDP-43WT cells). The cells were then pre-treated for 1 hour with exemplary compounds before adding sodium arsenite to a final concentration of […] and incubated for another 23 hrs. At the end of the treatment the cell monolayers were washed in PBS and fixed in 4% paraformaldehyde (PFA), diluted from 16% stock (Electron Microscopy Sciences cat: #15710-S). The inhibitory effect on TDP-43 aggregation was measured using CellInsight CX7 high content imager (ThermoFisher). The percentage of cells with TDP-43 aggregates was calculated based on the total number of cells identified by DAPI staining. An 8-point dose response curve was generated, and the IC50 for each compound tested was determined (Table 3).
In Table 3 below, A indicates an IC50 (nM)<500 nM, B indicates an IC50 (nM) 500 nM to <1000 nM, C indicates an IC50 (nM) 1000 nM to <2000 nM, D indicates an IC50 (nM) 2000 nM to <6000 nM, and E indicates an IC50 (nM) 6000 nM to ≤10000 nM.
An IC50 of less than 500 nM was found for `CC(C)(O)CN1CCC(c2ccc(-c3cc(Cl)c(C(=O)N4CC[C@H](N)C4)s3)cc2F)CC1` [Compound 256, (S)-(3-aminopyrrolidin-1-yl)(3-chloro-5-(3-fluoro-4-(1-(2-hydroxy-2-methylpropyl)piperidin-4-yl)phenyl)thiophen-2-yl)methanone] in this work.
An IC50 of less than 500 nM was found for `Cc1cc(-c2ccc(C3CCN(CC(C)(C)O)CC3)c(F)c2)sc1C(=O)N1CC[C@H](N)C1` [Compound 257, (S)-(3-aminopyrrolidin-1-yl)(5-(3-fluoro-4-(1-(2-hydroxy-2-methylpropyl)piperidin-4-yl)phenyl)-3-methylthiophen-2-yl)methanone] in this work.
An IC50 of less than 500 nM was found for `COCCN1CCC(c2ccc(-c3cc(Cl)c(C(=O)N4CC[C@H](N)C4)s3)cc2)CC1` [Compound 258, (S)-(3-aminopyrrolidin-1-yl)(3-chloro-5-(4-(1-(2-methoxyethyl)piperidin-4-yl)phenyl)thiophen-2-yl)methanone] in this work.
An IC50 of 2000 to 6000 nM was found for `COc1cc(C2CCN(C3CCOCC3)CC2)ccc1-c1cc(C)c(C(=O)N2CC[C@H](N)C2)s1` [Compound 259, (S)-(3-aminopyrrolidin-1-yl)(5-(2-methoxy-4-(1-(tetrahydro-2H-pyran-4-yl)piperidin-4-yl)phenyl)-3-methylthiophen-2-yl)methanone] in this work.
An IC50 of 1000 to 2000 nM was found for `COc1cc(-c2cc(C)c(C(=O)N3CC[C@H](N)C3)s2)ccc1C1CCN(C2CCOCC2)CC1` [Compound 260, (S)-(3-aminopyrrolidin-1-yl)(5-(3-methoxy-4-(1-(tetrahydro-2H-pyran-4-yl)piperidin-4-yl)phenyl)-3-methylthiophen-2-yl)methanone] in this work.
An IC50 of 1000 to 2000 nM was found for `Cc1cc(-c2ccc(C3CCN(C4CCOCC4)CC3)c(OC(F)(F)F)c2)sc1C(=O)N1CC[C@H](N)C1` [Compound 261, (S)-(3-aminopyrrolidin-1-yl)(3-methyl-5-(4-(1-(tetrahydro-2H-pyran-4-yl)piperidin-4-yl)-3-(trifluoromethoxy)phenyl)thiophen-2-yl)methanone] in this work.
An IC50 of less than 500 nM was found for `Cc1cc(-c2ccc(C3CCN(CCO)CC3)c(F)c2)sc1C(=O)N1CC[C@H](N)C1` [Compound 262, (S)-(3-aminopyrrolidin-1-yl)(5-(3-fluoro-4-(1-(2-hydroxyethyl)piperidin-4-yl)phenyl)-3-methylthiophen-2-yl)methanone] in this work.
An IC50 of less than 500 nM was found for `N[C@H]1CCN(C(=O)c2sc(-c3ccc(C4CCN(CCO)CC4)c(F)c3)cc2Cl)C1` [Compound 263, (S)-(3-aminopyrrolidin-1-yl)(3-chloro-5-(3-fluoro-4-(1-(2-hydroxyethyl)piperidin-4-yl)phenyl)thiophen-2-yl)methanone] in this work.
An IC50 of less than 500 nM was found for `Cc1cc(-c2ccc(C3CCN(C4COC4)CC3)c(F)c2)sc1C(=O)N1CC[C@H](N)C1` [Compound 264, (S)-(3-aminopyrrolidin-1-yl)(5-(3-fluoro-4-(1-(oxetan-3-yl)piperidin-4-yl)phenyl)-3-methylthiophen-2-yl)methanone] in this work.
An IC50 of less than 500 nM was found for `N[C@H]1CCN(C(=O)c2sc(-c3ccc(C4CCN(C5COC5)CC4)c(F)c3)cc2Cl)C1` [Compound 265, (S)-(3-aminopyrrolidin-1-yl)(3-chloro-5-(3-fluoro-4-(1-(oxetan-3-yl)piperidin-4-yl)phenyl)thiophen-2-yl)methanone] in this work.
An IC50 of less than 500 nM was found for `CCN1CCC(c2ccc(-c3cc(Cl)c(C(=O)N4CC[C@H](N)C4)s3)cc2F)CC1` [Compound 266, (S)-(3-aminopyrrolidin-1-yl)(3-chloro-5-(4-(1-ethylpiperidin-4-yl)-3-fluorophenyl)thiophen-2-yl)methanone] in this work.
An IC50 of less than 500 nM was found for `N[C@H]1CCN(C(=O)c2sc(-c3ccc(C4CCN(C5CCOC5)CC4)c(F)c3)cc2Cl)C1` (stereo partly drawn) [Compound 267, ((S)-3-aminopyrrolidin-1-yl)(3-chloro-5-(3-fluoro-4-(1-(tetrahydrofuran-3-yl)piperidin-4-yl)phenyl)thiophen-2-yl)methanone] in this work.
An IC50 of less than 500 nM was found for `COCCCN1CCC(c2ccc(-c3cc(Cl)c(C(=O)N4CC[C@H](N)C4)s3)cc2F)CC1` [Compound 268, (S)-(3-aminopyrrolidin-1-yl)(3-chloro-5-(3-fluoro-4-(1-(3-methoxypropyl)piperidin-4-yl)phenyl)thiophen-2-yl)methanone] in this work.
An IC50 of less than 500 nM was found for `N[C@H]1CCN(C(=O)c2sc(-c3ccc(C4CCN(C5CCCCC5)CC4)c(F)c3)cc2Cl)C1` [Compound 269, (S)-(3-aminopyrrolidin-1-yl)(3-chloro-5-(4-(1-cyclohexylpiperidin-4-yl)-3-fluorophenyl)thiophen-2-yl)methanone] in this work.
An IC50 of less than 500 nM was found for `N[C@H]1CCN(C(=O)c2sc(-c3ccc(C4CCN(C5CCCC5)CC4)c(F)c3)cc2Cl)C1` [Compound 270, (S)-(3-aminopyrrolidin-1-yl)(3-chloro-5-(4-(1-cyclopentylpiperidin-4-yl)-3-fluorophenyl)thiophen-2-yl)methanone] in this work.
An IC50 of less than 500 nM was found for `N[C@H]1CCN(C(=O)c2sc(-c3ccc(C4CCN(C5CCC5)CC4)c(F)c3)cc2Cl)C1` [Compound 271, (S)-(3-aminopyrrolidin-1-yl)(3-chloro-5-(4-(1-cyclobutylpiperidin-4-yl)-3-fluorophenyl)thiophen-2-yl)methanone] in this work.
An IC50 of 1000 to 2000 nM was found for `COc1cc(-c2ccc(C3CCN(C4CCOCC4)CC3)c(Cl)c2)sc1C(=O)N1CC[C@H](N)C1` [Compound 272, (S)-(3-aminopyrrolidin-1-yl)(5-(3-chloro-4-(1-(tetrahydro-2H-pyran-4-yl)piperidin-4-yl)phenyl)-3-methoxythiophen-2-yl)methanone] in this work.
An IC50 of less than 500 nM was found for `N[C@H]1CCN(C(=O)c2sc(-c3ccc(C4CCN(C5CCOCC5)CC4)c(Cl)c3)cc2Cl)C1` [Compound 273, (S)-(3-aminopyrrolidin-1-yl)(3-chloro-5-(3-chloro-4-(1-(tetrahydro-2H-pyran-4-yl)piperidin-4-yl)phenyl)thiophen-2-yl)methanone] in this work.
An IC50 of less than 500 nM was found for `Cc1cc(-c2ccc(C3CCN(C4CCOC4)CC3)c(F)c2)sc1C(=O)N1CC[C@H](N)C1` (stereo partly drawn) [Compound 274, ((S)-3-aminopyrrolidin-1-yl)(5-(3-fluoro-4-(1-(tetrahydrofuran-3-yl)piperidin-4-yl)phenyl)-3-methylthiophen-2-yl)methanone] in this work.
An IC50 of less than 500 nM was found for `COCCCN1CCC(c2ccc(-c3cc(C)c(C(=O)N4CC[C@H](N)C4)s3)cc2F)CC1` [Compound 275, (S)-(3-aminopyrrolidin-1-yl)(5-(3-fluoro-4-(1-(3-methoxypropyl)piperidin-4-yl)phenyl)-3-methylthiophen-2-yl)methanone] in this work.
An IC50 of less than 500 nM was found for `COCCN1CCC(c2ccc(-c3cc(C)c(C(=O)N4CC[C@H](N)C4)s3)cc2F)CC1` [Compound 276, (S)-(3-aminopyrrolidin-1-yl)(5-(3-fluoro-4-(1-(2-methoxyethyl)piperidin-4-yl)phenyl)-3-methylthiophen-2-yl)methanone] in this work.
An IC50 of less than 500 nM was found for `Cc1cc(-c2ccc(C3CCN(C4CCCCC4)CC3)c(F)c2)sc1C(=O)N1CC[C@H](N)C1` [Compound 277, (S)-(3-aminopyrrolidin-1-yl)(5-(4-(1-cyclohexylpiperidin-4-yl)-3-fluorophenyl)-3-methylthiophen-2-yl)methanone] in this work.
An IC50 of less than 500 nM was found for `Cc1cc(-c2ccc(C3CCN(C4CCCC4)CC3)c(F)c2)sc1C(=O)N1CC[C@H](N)C1` [Compound 278, (S)-(3-aminopyrrolidin-1-yl)(5-(4-(1-cyclopentylpiperidin-4-yl)-3-fluorophenyl)-3-methylthiophen-2-yl)methanone] in this work.
An IC50 of less than 500 nM was found for `Cc1cc(-c2ccc(C3CCN(C4CCC4)CC3)c(F)c2)sc1C(=O)N1CC[C@H](N)C1` [Compound 279, (S)-(3-aminopyrrolidin-1-yl)(5-(4-(1-cyclobutylpiperidin-4-yl)-3-fluorophenyl)-3-methylthiophen-2-yl)methanone] in this work.
An IC50 of less than 500 nM was found for `CN1CCC(c2ccc(-c3cc(Cl)c(C(=O)N4CC[C@H](N)C4)s3)cc2F)CC1` [Compound 280, (S)-(3-aminopyrrolidin-1-yl)(3-chloro-5-(3-fluoro-4-(1-methylpiperidin-4-yl)phenyl)thiophen-2-yl)methanone] in this work.
An IC50 of less than 500 nM was found for `CCN1CCC(c2ccc(-c3cc(C)c(C(=O)N4CC[C@H](N)C4)s3)cc2F)CC1` [Compound 281, (S)-(3-aminopyrrolidin-1-yl)(5-(4-(1-ethylpiperidin-4-yl)-3-fluorophenyl)-3-methylthiophen-2-yl)methanone] in this work.
An IC50 of less than 500 nM was found for `Cc1cc(-c2ccc(C3CCN(C(C)C)CC3)c(F)c2)sc1C(=O)N1CC[C@H](N)C1` [Compound 282, (S)-(3-aminopyrrolidin-1-yl)(5-(3-fluoro-4-(1-isopropylpiperidin-4-yl)phenyl)-3-methylthiophen-2-yl)methanone] in this work.
An IC50 of less than 500 nM was found for `COCCN1CCC(c2ccc(-c3cc(Cl)c(C(=O)N4CC[C@H](N)C4)s3)cc2F)CC1` [Compound 283, (S)-(3-aminopyrrolidin-1-yl)(3-chloro-5-(3-fluoro-4-(1-(2-methoxyethyl)piperidin-4-yl)phenyl)thiophen-2-yl)methanone] in this work.
